Target: T1, glutathione peroxidase 1 (GPx1) (Homo sapiens, UniProt P07203)
T1 sequence (P07203 1-203): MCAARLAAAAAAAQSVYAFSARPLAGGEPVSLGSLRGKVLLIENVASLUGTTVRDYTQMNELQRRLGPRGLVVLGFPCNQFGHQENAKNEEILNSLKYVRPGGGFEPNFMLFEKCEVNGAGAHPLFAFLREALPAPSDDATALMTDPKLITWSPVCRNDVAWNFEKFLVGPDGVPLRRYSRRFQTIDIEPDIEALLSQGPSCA
Experiment: radiometric […]-fumarate binding to bead-bound flag-GPx1

SMILES: O=C(O)/C=C/C(=O)O [fumarate]
- Kd: 75.5 ± 5.22 µM

Source: publication PMC4325424 (Cancer cell, 2015)
